Source: patent US11464953B2, “Water-soluble microneedle spicules and non-aqueous cosmetic composition containing the same” (PAEAN AESTHETICS INC., priority 2015, dated 2022)

Test: HPLC stability test of vitamin C in non-aqueous cosmetics
Assay type: physicochemical
Details: maintained for 24 months
Experimental: To confirm the stability of vitamin C (ascorbic acid) contained in non-aqueous cosmetics, the content of the reduced form of ascorbic acid was measured by HPLC for 24 months. The non-aqueous cosmetics in an amount of 0.1 g was collected and distilled water was added to a final volume of 1 mL, and vehemently mixed. Then, the water-soluble ascorbic acid was eluted and the aqueous solution containing ascorbic acid was diluted and used for analysis. The column used was the C18 (4.6×150 mm) and 0.025 M phosphoric acid (pH 2.5) was used for the mobile phase. After adding 10 mM DTT to a 100-fold diluted sample for analysis, the amounts of the reduced form in the sample in which ascorbic acid was all converted to a reduced form and the sample in which 10 mM DTT was not added were compared and thereby the amounts of the ascorbic acid in the reduced form contained in the cosmetics were confirmed. The samples were prepared for 0, 3, 6, 9, 12, 18, and 24 months and analyzed by HPLC. […] The amounts of ascorbic acid in the reduced form was calculated as follows. [table]

content of ascorbic acid in the reduced form (Initial AA/Total AA × 100): ≥ 96%
Structure (SMILES): O=C1O[C@H]([C@@H](O)CO)C(O)=C1O [ascorbic acid]
